# From patent publication US20240292840A1, “TRIAZOLE COMPOUNDS FOR THE CONTROL OF INVERTEBRATE PESTS” (priority 2021, published 2024)
# Legend:
# [1] = tested on: Boll Weevil (Anthonomus grandis); assay: B.5 Boll weevil egg/larval test on insect diet in microtiter plates; assay type: in vivo; conditions: 120 h, egg and larval mortality, 5 days, read-out: mortality in comparison with untreated controls
# Experimental: B.5 Boll Weevil (Anthonomus grandis)
# For evaluating control of boll weevil (Anthonomus grandis), the test unit consisted of 96-well-microtiter plates containing an insect diet and 5-10 A. grandis eggs.
# The compounds were formulated using a solution containing 75% v/v water and 25% v/v DMSO. Different concentrations of formulated compounds were sprayed onto the insect diet at 5 μl, using a custom-built micro atomizer, at two replications.
# After application, microtiter plates were incubated at about 25±1° C. and about 75±5% relative humidity for 5 days. Egg and larval mortality was then visually assessed.
# [2] = tested on: Yellow Fever Mosquito (Aedes aegypti); assay: whole plant or invertebrate; assay type: in vivo; conditions: 48 h, larval mortality, 2 days, read-out: mortality in comparison with untreated controls
# Experimental: B.8 Yellow Fever Mosquito (Aedes aegypti)
# For evaluating control of yellow fever mosquito (Aedes aegypti) the test unit consisted of 96-well-microtiter plates containing 200 μl of tap water per well and 5-15 freshly hatched A. aegypti larvae.
# The active compounds were formulated using a solution containing 75% (v/v) water and 25% (v/v) DMSO. Different concentrations of formulated compounds or mixtures were sprayed onto the insect diet at 2.5 μl, using a custom-built micro atomizer, at two replications.
# After application, microtiter plates were incubated at 28±1° C., 80±5% RH for 2 days. Larval mortality was then visually assessed.
Structure (SMILES),mortality at 2500 ppm [1] [%],mortality at 2500 ppm [2] [%]
"C/C(=N\O)n1ncnc1C(C)NC(=O)c1cc(C(F)(F)F)cc(C(F)(F)F)c1 (centres unmarked) [I.1-76, N-[1-[2-[(E)-N-hydroxy-C-methyl-carbonimidoyl]-1,2,4-triazol-3-yl]ethyl]-3,5-bis(trifluoromethyl)benzamide]",≥ 75,–
"CCON=C(C)n1ncnc1C(C)NC(=O)c1cc(Cl)cc(C(F)(F)F)c1 (centres unmarked) [I.1-12, 3-chloro-N-[1-[2-(N-ethoxy-C-methyl-carbonimidoyl)-1,2,4-triazol-3-yl]ethyl]-5-(trifluoromethyl)benzamide]",≥ 75,≥ 75
"C/C(=N/O)n1ncnc1C(C)NC(=O)c1cc(C(F)(F)F)cc(C(F)(F)F)c1 (centres unmarked) [I.1-1, N-[1-[2-[(Z)—N-hydroxy-C-methyl-carbonimidoyl]-1,2,4-triazol-3-yl]ethyl]-3,5-bis(trifluoromethyl)benzamide]",≥ 75,–
"CC(=NOc1ccccc1)n1ncnc1C(C)NC(=O)c1cc(Cl)cc(C(F)(F)F)c1 (centres unmarked) [I.1-13, 3-chloro-N-[1-[2-[C-methyl-N-phenoxy-carbonimidoyl]-1,2,4-triazol-3-yl]ethyl]-5-(trifluoromethyl)benzamide]",–,≥ 75
